What was measured:
Format in all cases: cell-based
[1] = tested on: HeLa human cervical carcinoma cells; assay: High-content analysis of mitotic arrest in HeLa cells; conditions: for MDEC Nuclear condensation / MDEC Tubulin intensity: HCS assay, minimum detectable effective concentration; for mitotic arrest phenotype (immunostaining of α-tubulin, phosphohistone H3, Hoechst 33342): 1a 62 nM, 2c 940 nM, 3a 470 nM
[2] = tested on: MDA-MB-231 human breast cancer cells; assay: Wound healing; conditions: three different concentrations
[3] = tested on: REH human acute lymphoblastic leukemia cells; assay: REH cytotoxicity, MTT assay; conditions: REH and JURKAT versus NIH3T3, HUVEC

Row | SMILES | MDEC Nuclear condensation [1] | MDEC Tubulin intensity [1] | mitotic arrest phenotype (immunostaining of α-tubulin, phosphohistone H3, Hoechst 33342) [1] | cell migration in the scratch wound assay [2] | selectivity, nontransformed cells (NIH3T3, HUVEC, PBMC) compared with the two human tumor cell lines [3]
1 | COc1ccc(/C=C/C(=O)c2ccc3c(c2)OCO3)c(OC)c1OC [Compound 2d, (2E)-1-(1’,3’-benzodioxol-5-yl)-3-(2,3,4-trimethoxyphenyl)-2-propen-1-one] | >50,000 nM | >50,000 nM |  |  | 
2 | COc1cc2c(c(OC)c1OC)-c1ccc(OC)c(=O)cc1[C@@H](NC(C)=O)CC2 [Compound 1a, colchicine, reference compound] | 12.0 ± 4.8 nM | 10.2 ± 3.8 nM | tubulin disorganization, increased number of phosphohistone H3-positive cells, chromatin condensation, and nuclear fragmentation | significantly inhibited cell migration | 
3 | COc1cc(C(=O)/C=C/c2ccc3ccccc3c2)ccc1O [Compound 2b, (2e)-3-(2-naphthyl)-1-(3'-methoxy-4'-hydroxy-phenyl)-2-propen-1-one] | 2,200 ± 700 nM | 1,100 ± 200 nM |  |  | 
4 | COc1cc(C(=O)/C=C/c2ccc(N(C)C)cc2)cc(OC)c1OC [Compound 3a, (2E,Z)-1-(3’,4’,5’-trimethoxyphenyl)-3-(4-dimethylaminophenyl)-2-propen-1-one] | 217 ± 67 nM | 139 ± 13 nM | tubulin disorganization, increased number of phosphohistone H3-positive cells, chromatin condensation, and nuclear fragmentation | significantly inhibited cell migration | 45 – 100 fold
5 | COc1cc(C(=O)/C=C/c2ccc3ccccc3c2)cc(OC)c1OC [Compound 2c, (2E)-1-(3’,4’,5’-trimethoxyphenyl)-3-(2-naphthyl)-2-propen-1-one] | 317 ± 23 nM | 283 ± 52 nM | tubulin disorganization, increased number of phosphohistone H3-positive cells, chromatin condensation, and nuclear fragmentation | significantly inhibited cell migration | 45 – 100 fold
6 | O=C(/C=C/c1ccccc1)c1ccccc1 [Compound 2a, 1,3-diphenylprop-2-en-1-one] | >50,000 nM | >50,000 nM |  |  | 

Reference: paper PMC3674157 (European journal of medicinal chemistry, 2013)
